Assays:
[1] = test system: GABA receptor complex; details: Tarnawa et al. 1989; cited from earlier work
[2] = test system: N-acetyltransferse NAT2 isozymes; assay: Previous clinical trial: N-acetylation of talampanel by NAT2; assay type: in vivo, human
Source text: N-acetylation was identified as one metabolic pathway of talampanel, catalyzed by N-acetyltransferse NAT2 isozymes. A genetic polymorphism in the NAT2 gene affects the acetylation rate. […] The three common slow acetylator alleles identified are NAT2*5A, NAT2*6A and NAT2*7A. The NAT2*5 alleles have the greatest reductions in metabolic activation while NAT2*6 alleles have more moderate reductions and NAT2*7 alleles have the smallest, but yet significant, reductions. The frequency of NAT2 slow acetylators (about 2-10% in Asian, 60-70% in Caucasians, 30-40% in Africans) and NAT2 fast acetylators (about 40-60% in Asian, 3-15% in Caucasian, 10-25% in Africans) varies markedly with ethnicity.

[3] = test system: mouse model of ALS; details: Van Damme et al. 2003; cited from earlier work
[4] = test system: motor neurons; details: in vitro; cited from earlier work
[5] = test system: subjects with ALS; assay: Example 3: another clinical trial according to the procedure of Example 1; assay type: in vivo, human
Experimental: (§1) A subject is assessed for study eligibility at a screening visit (one to 4 weeks prior to baseline). Subjects who are found eligible to participate in the study are randomized in a 2:1:2 ratio into one of the following three treatment groups based on a randomization scheme with blocks stratified by center: • 1. 50 mg (25 mg capsule×2) talampanel t.i.d. (150 mg daily) • 2. 25 mg (12.5 mg capsule×2) talampanel t.i.d. (75 mg daily) • 3. Placebo
(§2) After undergoing randomization subjects receive their first dose of study treatment on site. There are two possible escalation periods to reach maximal dose of 6 capsules per day, as follows: • Screening Period Up to 4 weeks but not less than 1 week. The period between screening visit and baseline visit. During this time period all relevant data for the assessment of subjects eligibility should be collected and reviewed i.e. lab results, ECG, medical history etc. • First Escalation Period: A period of 4 to 6 weeks, following screening period. This period starts at baseline visit, following randomization; • Second Escalation Period: A period of 2 weeks, this period starts at week 10 visit and ends at week 12 visit. • Maintenance Period: A time period of 46 to 48 weeks, following the first escalation period, starting after reaching maximal achieved dose in the first escalation period. During this period oral administration of talampanel 25 mg t.i.d., 50 mg t.i.d. (or maximal achieved dose) or matching oral placebo is maintained.
(§3) The first escalation period is a period of 4-6 weeks, following randomization. The dose escalation plan for the 25 mg and 50 mg t.i.d. dose levels, respectively, is as follows: • First week: from baseline visit to week 1 (telephone visit): Three capsules (37.5 mg or 75 mg daily) one each a.m., mid-day and p.m. dosing. • Second week: from week 1 (telephone visit) to week 2 (telephone visit): Four capsules (50 mg or 100 mg daily) one each a.m. & mid-day, two at p.m. dosing. • Third week: from week 2 (telephone visit) to week 3 (telephone visit): Five capsules (62.5 mg or 125 mg daily) two at a.m. one in mid-day and two at p.m. dosing. • Fourth week: from week 3 (telephone visit) to week 4 on site visit: Six capsules (75 mg or 150 mg daily) two at each a.m., mid-day and p.m. dosing.
(§4) At in-clinic visits the following are assessed: • Revised ALS Functional Rating Scale (ALSFRS-R) (screening, baseline, weeks 4-6, 12, 26, 40, 52/ET and unscheduled) • Slow VC (screening, baseline, weeks 4-6, 12, 26, 40, 52/ET and unscheduled) • Manual Muscle Testing (MMT) (baseline, weeks 12, 26, 40, 52/ET and unscheduled) • ALS-Specific Quality of life (ALSSQoL) scale (baseline, weeks 26, 52/ET) [US and Canada Only] • EuroQol-5 Dimensions (EQ-5D) health outcomes scale (baseline, weeks 4-6, 12, 26, 40 and 52/ET) • Health Care Resource Utilization Questionnaire for ALS (baseline, weeks 4-6, 12, 26, 40, 52/ET) • Caregiver burden questionnaire, Zarit Burden Interview (ZBI) [caregiver] (Baseline, weeks 12, 26, 40, 52/ET) • Laboratory (screening, baseline, weeks 4-6, 12, 26, 40, 52/ET and unscheduled) • ECG (screening, baseline (3 times), weeks 4-6, 12, 26, 40, 52/ET and unscheduled) • Physical examination (screening, baseline, weeks 4-6, 12, 26, 40 and 52/ET and unscheduled) • Vital signs and weights (screening, baseline, weeks 4-6, 12, 26, 40 and 52/ET and unscheduled) • Check of concomitant medications, AEs and compliance • Pharmacokinetics (PK): Safety Pharmacokinetics (PK) blood samples are taken after at least 3 days on the maximal achieved dose at end of first escalation period at week 4-6 (pre-dose, anytime in the range of 0.5-2 hours post-dose and anytime in the range of 2-4 hours post dose with at least 1 hour difference between the 2 post dose samples) and at week 12 (pre-dose, anytime in the range of 0.5-2 hours post-dose and anytime in the range of 2-4 hours post dose with at least 1 hour difference between the 2 post dose samples). […]

[6] = test system: subjects with ALS; assay: Example 2: another clinical trial according to the procedure of Example 1; assay type: in vivo, human
Experimental: as §1, §2, §3, §4

[7] = test system: ALS; assay: Pilot study of talampanel in ALS, 50 mg t.i.d. vs placebo; assay type: in vivo, human; details: placebo −10.2, p=0.08, positive trend
Experimental: A pilot study of talampanel in ALS compared 50 mg t.i.d of talampanel to placebo. The study found a positive trend in the ALSFRS scores of talampanel treated relative to placebo (average score −7.1 vs. −10.2, p=0.08).

[8] = human, in vivo
Experimental: (§5) In this study, the daily dose is increased by 12.5 mg or 25 mg daily each week to reach 75 mg or 150 mg daily (25 mg t.i.d. or 50 mg t.i.d.) respectively, at the 4th to 6th week or at the 11th to 12th week if needed.

[9] = test system: AMPA subtype of glutamate excitatory amino acid receptors; details: AMPA antagonist; cited from earlier work
[10] = Prior clinical trials with talampanel: safety and tolerability; details: previous clinical trials
Experimental: as §5

[11] = test system: subjects with ALS; assay: Example 4: another clinical trial according to the procedure of Example 1; assay type: in vivo, human
Experimental: as §1, §2, §3, §4

[12] = test system: motor neurons; details: organotypic spinal cord slice model; cited from earlier work
[13] = test system: ALS patients; details: cited from earlier work
[14] = 50 mg t.i.d., statistically significant
[15] = talampanel group, dose not stated, vs placebo

## CC1=NN=C(c2ccc(N)cc2)c2cc3c(cc2C1)OCO3 [GYKI-52466]
[1]
  1,4-benzodiazepine (diazepam-like) activity at the GABA receptor complex: no classical 1,4-benzodiazepine (that is, “diazepam-like”) activity

## CC(=O)Nc1ccc(C2=NN(C(C)=O)C(C)Cc3cc4c(cc32)OCO4)cc1 (stereo not drawn) [NAC talampanel]
[2]; human, in vivo
  measurable levels of NAC talampanel by acetylator status: seen primarily in fast acetylator subjects, but not in slow acetylators

## NS(=O)(=O)c1cccc2c1c([N+](=O)[O-])cc1nc(O)c(O)nc12 [NBQX]
[3]
  prolonged survival in ALS mice: 14 days
[4]
  kainate induced calcium entry into motor neurons: blocked

## CC(=O)N1N=C(c2ccc(N)cc2)c2cc3c(cc2C[C@H]1C)OCO3 [talampanel]
[5]; 25 mg t.i.d.
  decrease in the slopes of ALSFRS-R as compared to placebo: 25%
  risk of either death, tracheostomy, or permanent assisted ventilation: reduction
[5]; 50 mg t.i.d vs placebo
  adjusted mean change from baseline in MMT across visits: decrease
[5]; 50 mg t.i.d.
  decrease in the change in ALSFRS-R from baseline to LOV in comparison to placebo: 25%
  risk of either death, tracheostomy, or permanent assisted ventilation: decrease
[5]; 50 mg t.i.d. vs placebo
  adjusted mean change from baseline in Slow VC across visits: decrease
  slopes of MMT: decrease
  slopes of Slow VC: decrease
[5]; [14]
  decrease in the slopes of ALSFRS-R as compared to placebo: 25%
[5]; [15]
  change in MMT from baseline to LOV: decrease
[6]; 25 mg t.i.d.
  decrease in the slopes of ALSFRS-R as compared to placebo: 20%
  risk of either death, tracheostomy, or permanent assisted ventilation: reduction
[6]; 50 mg t.i.d.
  decrease in the change in ALSFRS-R from baseline to LOV in comparison to placebo: 20%
  risk of either death, tracheostomy, or permanent assisted ventilation: decrease
[6]; 50 mg t.i.d. vs placebo
  adjusted mean change from baseline in MMT across visits: decrease
  adjusted mean change from baseline in Slow VC across visits: decrease
  slopes of MMT: decrease
  slopes of Slow VC: decrease
[6]; [14]
  decrease in the slopes of ALSFRS-R as compared to placebo: 20%
[6]; [15]
  change in MMT from baseline to LOV: decrease
[7]
  ALSFRS scores, average score: −7.1
[8]
  safety and tolerability of the dose: safe and tolerated
[9]
  potency relative to GYKI-52466: more potent
[2]; metabolic pathway
  N-acetylation dependence on NAT2 activity: highly dependent on NAT2 activity
[10]
  adverse events when the dose is gradually increased over time: reduced
[11]; 25 mg t.i.d.
  decrease in the slopes of ALSFRS-R as compared to placebo: 30%
  risk of either death, tracheostomy, or permanent assisted ventilation: reduction
[11]; 50 mg t.i.d.
  decrease in the change in ALSFRS-R from baseline to LOV in comparison to placebo: 30%
  risk of either death, tracheostomy, or permanent assisted ventilation: decrease
[11]; 50 mg t.i.d. vs placebo
  adjusted mean change from baseline in MMT across visits: decrease
  adjusted mean change from baseline in Slow VC across visits: decrease
  slopes of MMT: decrease
  slopes of Slow VC: decrease
[11]; [14]
  decrease in the slopes of ALSFRS-R as compared to placebo: 30%
[11]; [15]
  change in MMT from baseline to LOV: decrease

## CC1(C)O[C@@H]2[C@@H](CO[C@@]3(COS(N)(=O)=O)OC(C)(C)O[C@@H]23)O1 [topiramate]
[12]
  protection of motor neurons: protected motor neurons
[13]; Cudkowicz et al. 2003
  benefit in clinical trial in ALS patients: no benefit
[13]; including dramatic weight loss
  adverse events in patients: significant adverse events

Source: patent US20090258863A1, “Method for treatment of amyotrophic lateral sclerosis using talampanel” (priority 2008, published 2009)
